Source: US5773459A, “Urea- and thiourea-type compounds” (Sugen, Inc., priority 1995, dated 1998)
Like-named read-outs stand apart in the source and are kept apart here.

System: HUV-EC-C cells (human umbilical vein endothelial cells)
Experiment: HUV-EC-C Flk-1 assay (3H-thymidine incorporation)
Format: cell-based
Settings: Endothelial cell
Experimental: The HUV-EC-C Flk-1 assay can be performed as follows:
1. Wash and trypsinize HUV-EC-C cells (human umbilical vein endothelial cells, American Type Culture Collection; catalogue no. 1730-CRL). Wash with Dulbecco's phosphate-buffered saline (D-PBS; obtained from Gibco BRL; catalogue no. 14190-029) 2 times at about 1 ml/10 cm^2 of tissue culture flask. Trypsinize with 0.05% trypsin-EDTA in non-enzymatic cell dissociation solution (Sigma Chemical Company; catalogue no. C-1544). The 0.05% trypsin was made by diluting 0.25% trypsin/l mM EDTA (Gibco; catalogue no. 25200-049) in the cell dissociation solution. Trypsinize with about 1 ml/25-30 cm^2 of tissue culture flask for about 5 minutes at 37° C. After cells have detached from the flask, add an equal volume of D-PBS and transfer to a 50 ml sterile centrifuge tube (Fisher Scientific; catalogue no. 05-539-6).
2. Wash the cells with about 35 ml D-PBS in the 50 ml sterile centrifuge tube by adding the D-PBS, centrifuge for 10 minutes at approximately 200×g, aspirate the supernatant, and resuspend with 35 ml D-PBS. Repeat the wash two more times, resuspend the cells in about 1 ml assay medium/15 cm^2 of tissue culture flask. Assay medium consists of F12K medium (Gibco BRL; catalogue no. 21127-014)+0.5% heat-inactivated fetal bovine serum. […]

CC(C)S(=O)(=O)c1csc(NC(=O)Nc2ccc(C(C)(C)C)cc2)c1Cl [Example Z1, N-[3-Chloro-4-(isopropylsulfonyl)thien-2-yl]-N'-(4-t-butylphenyl)urea] showed an IC50 (VEGF stimulated, read-out: GROWTH DATA: HUV-EC-C/VEGF) of 2.9 µM and an IC50 (aFGF stimulated, read-out: GROWTH DATA: HUV-EC-C/aFGF) of 30 µM.
